{
  "source": "patent US20190298717A1",
  "about": "(BOARD OF REGENTS, THE UNIVERSITY OF TEXAS SYSTEM, priority 2016, published 2019)",
  "key": {"[1]": {"system": "HeLa cells expressing EGFP-HD103Q", "conditions": "48 hours", "description": "The fraction of EGFP-positive cells expressing aggregates under different conditions were plotted as odds ratios taking Ctrl value as 1. Error bars show 95% confidence interval. […] Error bars show SD."}, "[2]": {"system": "SKN-1", "method": "(§1) Western Blot Analysis. Protein expression was determined by Western blot analysis. Equal amount of protein from each sample was run in Tris-glycine SDS PAGE gel, followed by transferring to PVDF membrane. After blocking the membrane with 5% milk for 1 hour at room temperature, the membrane was incubated further for 2 hours with antibodies specific for target proteins: Nrf2, pNrf2(S40) from Novus (Littleton, Colo.); Keap1, HO-1, NQO1, GCLc, GCLm and lamin B1 from Cell Signaling (Danvers, Mass.); GAPDH from Santa Cruz (Dallas, Tex.); β-Actin from Thermo Fisher (Waltham, Mass.). The membrane was subsequently incubated with species-specific HRP-conjugated secondary antibody followed by incubation with chemiluminescence substrate and imaging. The band intensity of each of the target proteins was quantified using ImageQuant software (GE Healthcare, Sweden). Western blot analysis on worm lystaes was done similarly. […] Equal amounts of protein were run on the gel and SKN-1 protein level was detected using anti-GFP antibody."}, "[3]": {"system": "Nrf2 and HO-1", "method": "The inventors first measured the cell proliferation to evaluate the stress caused by expression of tau fibrils in aggregate-positive and negative cells (FIG. 6A). […] The inventors also measured the concentration of superoxide ions (O2-), a detrimental byproduct of oxidative phosphorylation, as an ROS representative. […] The inventors next measured expression of Nrf2 and HO-1 in the same cells (FIG. 6C). […] Aggregate-positive and -negative KD cells were treated with 200 μM H2O2 for 24 h. Cytotoxicity was measured as release of LDH.\nas §1"}, "[4]": {"system": "PC12 cells expressing EGFP-HDQ74", "method": "Transgene expression was induced with doxycycline for 8 hours, and then switched off (by removing doxycycline). […] The fraction of EGFP-positive cells expressing aggregates under different conditions were plotted as odds ratios taking Ctrl value as 1. Error bars show 95% confidence interval. […] The fraction of EGFP-positive cells with aggregates were plotted as odds ratios taking Ctrl value as 1. Error bars show 95% confidence interval. […] Rapamycin ([…]) was used as positive control. Right panel is densitometry analysis of EGFP-HDQ74 level normalized to actin. Error bars show SD. […] The fraction of EGFP-positive cells expressing aggregates were plotted as odds ratios taking Ctrl value as 1. Error bars show 95% confidence interval.\nTo investigate the clearance of HDQ74 (74 repeats of poly Q), the inventors used a stable doxycycline-inducible PC12 cell line expressing EGFP-tagged HDQ74 in which transgene expression were induced by doxycycline addition to the cell media and switched off by doxycycline removal. […] Rapamycin, a known autophagy inducer, was used as positive controls."}, "[5]": {"system": "SKN-1/Nrf2-stress response pathway", "conditions": "in vivo", "protocol": "Treated and untreated populations, four biological replicates each, were then lysed, digested and analyzed by shotgun mass spectrometry for label-free quantification. […] An IPA analysis was performed using proteins with human orthologs.\nWorms were lysed in 8M urea, 5% 1 M Tris-HCl pH 8.0 and 1× protease inhibitor cocktail EDTA-free (Thermo Fisher, Waltham Mass.) buffer with the aid of sonication. Lysates were centrifuged at 14000 g for 15 min at 4° C. and proteins in the supernatant were precipitated using cold acetone. Disulfide bonds were reduced and alkylated (by DTT and IAA respectively) before diluting the solution to 1.8 M with 25 mM TRIS-HCL pH 8.0. Proteins were digested overnight at 37° C. with trypsin (Promega, Fitchburg Wis.) in presence of 1 mM CaCl2. Peptides were acidified with TFA and purified using Oasis HLB plates (Waters, UK). A Dionex Ultimate 3000 UHPLC (Thermo) was coupled to an Orbitrap Fusion Lumos mass spectrometer for the separation and analysis of tryptic peptides. […]\nLC-MS/MS raw data files were processed using the latest available MaxQuant software (v.1.5.3.30). […] The p-values for all the statistical analysis were calculated using a two-tailed student t-test as used for normally distributed data (we pre-processed intensities by binary logarithm)."}, "[6]": {"system": "neuropeptide Y, synaptotagmin", "conditions": "data not shown", "description": "Neuronal plasticity, defined as the brain's ability to form new neural connections, allows the neurons to compensate for injury and disease and to adjust their activities in response to new situations or changes in their environment."}, "[7]": {"system": "Nrf2 knockdown SH-SY5Y cells", "conditions": "Nrf2 siRNA knockdown, 24 h", "method": "GSH is regulated by the rate-limiting enzyme GCL consisted of GCLc and GCLm subunits. […] The inventors then used extracellular lactate dehydrogenase cytotoxicity assay to measure cell survival.\nCell Viability and Cytotoxicity Assay. Cell growth was analyzed using the MTT cell viability assay. Briefly, at the end of incubation/treatment, MTT reagent was diluted in culture medium and aliquoted into each well. After incubation for 2 hours, the medium was aspirated and DMSO was aliquoted into each well to disrupt the cells and dissolve the intracellular MTT dyes. Absorbance was read at 570 nm wavelength in a 96-well plate reader. Cell toxicity was detected using a LDH cell toxicity assay kit (Promega, Fitchburg Wis.). This is a coupled enzymatic assay that detects a visible color signal initially described by Nachlas et. al. The reagent contained excess concentrations of lactate and NAD+as substrates to drive the LDH reaction and produce NADH. In the presence of diaphorase, NADH drives the enzyme-catalyzed conversion of iodonitro-tetrazolium violet to a red formazan product. Briefly, DMEM medium was withdrawn from each well of the plate after treatment and briefly centrifuged to get rid of floating cells or cell debris. […] The absorbance was read at 490 nm in a 96-well plate reader. […]"}, "[8]": {"system": "SH-SY5Y cells", "conditions": "Aβ (1-42) 20 μM, 24 hour; 46% with Aβ alone", "method": "Densitometry values were normalized against actin.\nAfter 24 hour treatment, cell viability was measured using the cell titer glow luminescence assay."}, "[9]": {"system": "GSK3β and Tau", "method": "(§2) The data represents as percent cell viability normalized to DMSO treated control cells. The values are mean percent of two biological experiments performed in six replicates. […] After treatment Western blot analysis was performed to check the levels of p-GSK3β and total GSK3β in addition to p-Tau and total Tau level. […] Densitometry values were normalized using actin as internal control. All western blot analysis (FIG. 19B, 19C) values are mean±SD from three biological independent experiments (shown in the right panel).\n(§3) To mimic the cellular environment of AD disease a stable HEK293 cell line (HEKTauP301S) overexpressing mutated full length Tau (P301S) was used."}, "[10]": {"system": "HEKTauP301S cells", "conditions": "20 μM Aβ (1-42), 5 and 10 μM, 24 hours", "method": "as §2, §3"}, "[11]": {"conditions": "tau aggregate cells treated with 0, 10, 20 μM (FIG. 6C), comparator not stated"}, "[12]": {"conditions": "HEKTauP301S, 500 nM Aβ (1-42), 10 μM, 24 hours"}},
  "data": [
    {"smiles": "NNc1nncc2ccccc12", "note": "[Hydralazine]", "values": [
      {"measurement": "EGFP-HD103Q poly Q aggregates", "setting": "[1]", "value": "disappearance of higher order poly Q aggregates"},
      {"measurement": "expression of SKN-1 isoforms (B and C) by Western blot", "setting": "[2]; 100 μM, 72 hours", "value": "showed increases"},
      {"measurement": "signal intensity and localization of SKN-1::GFP in intestinal nuclei and ASI neurons", "setting": "[2]; in vivo", "value": "significantly increased"},
      {"measurement": "Nrf2 expression with hydralazine and rotenone compared to rotenone only", "setting": "[3]; aggregate-positive cells, 20 μM, 1 μM rotenone, 24 h", "value": "higher"},
      {"measurement": "HO-1 expression increase", "setting": "[3]; [11]", "value": "~25", "unit": "%"},
      {"measurement": "Nrf2 expression, higher", "setting": "[3]; [11]", "value": 1.5, "unit": "fold"},
      {"measurement": "poly Q aggregates (Western blot, EGFP tag)", "setting": "[4]", "value": "efficient removal of poly Q aggregates"},
      {"measurement": "EGFP-HDQ74 aggregates (confocal)", "setting": "[4]; 10 μM, 48 hours", "value": "significantly reduced"},
      {"measurement": "clearance of Poly Q aggregates after 3-MA and bafilomycin", "setting": "[4]; 5 mM 3-MA, 20 nM bafilomycin", "value": "abrogated"},
      {"measurement": "EGFP-HDQ74 aggregates in ATG5 knock-down cells", "setting": "[4]; ATG5 shRNA", "value": "failed to clear"},
      {"measurement": "SKN-1/Nrf2-stress response pathway activation, IPA Z score", "setting": "[5]", "value": 3.317},
      {"measurement": "increase of expression of neuropeptide Y", "setting": "[6]", "value": 3, "unit": "fold"},
      {"measurement": "increase of expression of synaptotagmin", "setting": "[6]", "value": "~2.5", "unit": "fold"},
      {"measurement": "protection from H2O2-induced cytotoxicity in Nrf2 knockdown cells (LDH)", "setting": "[7]", "value": "no protection"},
      {"measurement": "cells surviving Aβ (1-42) peptide treatment", "setting": "[8]", "value": "70-80%"},
      {"measurement": "phosphorylation level of GSK3β in control HEK293 cells", "setting": "[9]; HEKT293 cells as control", "value": "not able to detect a significant upregulation"},
      {"measurement": "Aβ-induced Tau phosphorylation", "setting": "[9]; [12]", "value": "inhibits Aβ-induced Tau phosphorylation"},
      {"measurement": "phosphorylation of GSK3β", "setting": "[9]; [12]", "value": "upregulates the phosphorylation of GSK3β"},
      {"measurement": "viability under Aβ (1-42)-induced toxicity", "setting": "[10]", "value": "protects Tau-overexpressing cells"}
    ]}
  ]
}
